Results published in US20090048269A1 (AstraZeneca AB, priority 2007, published 2009).
Values joined by “and” are separate entries in the source; they are usually repeats but may differ in a detail not shown here. Equal values may be shown once.

Key:
human ALK5 [1] = biological target: T1, human ALK5 (Homo sapiens, UniProt P36897); test: ALK5 Enzyme Assay 1; assay type: biochemical; set-up: 6His tagged ALK5 protein (amino acids 162-503) expressed in insect cells; 6His; made in house; host or cells: insect cells; conditions: read-out: EAA: activity (μM) using Enzyme Assay 1
T1 sequence (P36897 162-503): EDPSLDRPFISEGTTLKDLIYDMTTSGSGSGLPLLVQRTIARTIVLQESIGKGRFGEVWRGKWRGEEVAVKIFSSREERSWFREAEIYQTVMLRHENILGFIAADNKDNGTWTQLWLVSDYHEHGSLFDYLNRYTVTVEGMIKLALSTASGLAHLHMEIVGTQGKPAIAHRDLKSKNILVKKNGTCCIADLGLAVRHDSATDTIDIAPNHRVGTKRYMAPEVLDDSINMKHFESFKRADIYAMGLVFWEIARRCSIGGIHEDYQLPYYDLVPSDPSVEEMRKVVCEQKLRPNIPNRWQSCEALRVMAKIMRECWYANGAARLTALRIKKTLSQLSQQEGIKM
Protocol: This assay measures the ability of a compound to bind to and inhibit the activity of ALK5 protein in vitro. […] Assay measurements were performed in assay buffer comprising 60 mM HEPES pH 7.4, 3 mM MgCl2, 3 mM MnCl2, 3 μM Na orthovanadate, 1.2 mM DTT and 0.05% PEG2000. […] Reactions were performed in the presence of 200 μg/mL casein (Sigma-Aldrich C4765-10ML), 200 ng/mL ALK5, 0.5 μM ATP (Sigma-Aldrich A7699), 1 μCi/mL γ-33P ATP. Following addition of casein, ATP and compound, reactions were initiated by adding ALK5 enzyme and reactions run for 90 minutes. After incubation reactions were terminated by addition of 20 μL per well of 50% orthophosphoric acid. 20 minutes after addition of 70% v/v TCA, precipitated protein was transferred to GF/C 96 well plates using a Tomtec harvester with 1.5% orthophosphoric acid. […] All reactions were performed under linear kinetics.

human ALK5 [2] = biological target: T1, human ALK5; test: ALK5 Enzyme Assay 2 (fluorescence polarisation probe displacement); assay type: binding; set-up: 6His tagged human ALK5 (residues162-503) was grown and purified from insect cells; 6His; made in house; host or cells: insect cells; conditions: read-out: EAA2: activity (μM) using Enzyme Assay 2
Outline: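 Recombinant ALK5 (3 μg/mL) incubated with test compound in 50 mM HEPES pH7.4, 10 mM MgCl2, 1 mM DTT, 0.01% CHAPS. Displacement of a fluorescent quinazoline-based ALK5 probe (50 nM final) in presence of 1 μM ATP read by fluorescence polarisation.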

For `Cc1cc(Oc2ccnc(Nc3ccc(CO)cc3)c2)c(-c2ccccn2)nc1C` [Example 33, (4-{[4-(5,6-Dimethyl-2-pyridin-2-yl-pyridin-3-yl)-oxypyridin-2-yl]amino}phenyl)methanol], which IC50 (human ALK5 [1]) is on record?
Its IC50 is 0.0172 µM.

What about the IC50 (human ALK5 [2]) of the same molecule?
The IC50 was 0.0167 µM.

How did the IC50 (human ALK5 [1]) turn out when `Cc1cc(Oc2ccnc(Nc3ccc4[nH]ccc4c3)c2)c(-c2ccccn2)nc1C` [Example 35, N-[4-(5,6-Dimethyl-2-pyridin-2-yl-pyridin-3-yl)-oxypyridin-2-yl]-1H-indol-5-amine] was run?
Its IC50 is 0.205 µM.

And the IC50 (human ALK5 [2])?
Its IC50 is 0.463 µM.

For `COc1cc(Nc2cc(Oc3cccnc3-c3ccccc3C#N)ccn2)cc(OC)c1OC` [Example 50, 2-(3-{2-[(3,4,5-Trimethoxyphenyl)amino]pyridin-4-yl}-oxypyridin-2-yl)benzonitrile], which IC50 (human ALK5 [1]) is on record?
Its IC50 is 0.126 µM.

What about the IC50 (human ALK5 [2]) of the same molecule?
Its IC50 is 0.0308 µM.

How did the IC50 (human ALK5 [1]) turn out when `COc1cc(Nc2cc(Oc3ccc(C)nc3-c3ccccc3)ccn2)cc(OC)c1OC` [Example 45, 4-(6-Methyl-2-phenyl-pyridin-3-yl)oxy-N-(3,4,5-trimethoxy-phenyl)pyridin-2-amine] was run?
Its IC50 is 0.00537 µM.

What about the IC50 (human ALK5 [2]) of the same molecule?
The IC50 was 0.00799 µM.

What does the source list for `CCn1nccc1Nc1cc(Oc2cc(C)c(C)nc2-c2ccccn2)ccn1` [Example 32, 4-(5,6-Dimethyl-2-pyridin-2-yl-pyridin-3-yl)oxy-N-(2-ethylpyrazol-3-yl)-pyridin-2-amine]?
IC50 (human ALK5 [1]): 0.0425 µM; IC50 (human ALK5 [2]): 0.0339 µM

Which IC50 (human ALK5 [1]) does the source give for `CC(=O)Nc1cc(Nc2cc(Oc3cc(C)c(C)nc3-c3ccccn3)ccn2)ccc1C` [Example 16, N-(5-{[4-(5,6-Dimethyl-2-pyridin-2-yl-pyridin-3-yl)oxypyridin-2-yl]amino}-2-methyl-phenyl)acetamide] here?
Its IC50 is 0.0128 µM.

And the IC50 (human ALK5 [2])?
The IC50 was 0.00602 µM.

With `Cc1cc(Oc2ccnc(Nc3ccccc3)c2)c(-c2ccccn2)nc1C` [Example 24, 4-(5,6-Dimethyl-2-pyridin-2-yl-pyridin-3-yl)oxy-N-phenyl-pyridin-2-amine] as the molecule, how does the IC50 (human ALK5 [1]) read?
Its IC50 is 0.00417 µM.

`Cc1cc(Oc2ccnc(Nc3ccc(Cl)cc3)c2)c(-c2ccccn2)nc1C` [Example 30, N-(4-Chlorophenyl)-4-(5,6-dimethyl-2-pyridin-2-yl-pyridin-3-yl)oxy-pyridin-2-amine] was tested. Which IC50 (human ALK5 [1]) did it give?
The IC50 was 1.67 µM.

And the IC50 (human ALK5 [2])?
The IC50 was 0.894 µM.

`Cc1cc(Oc2ccnc(Nc3ccc(C(=O)N(C)C)cc3)c2)c(-c2ccccn2)nc1C` [Example 27, 4-{[4-(5,6-Dimethyl-2-pyridin-2-yl-pyridin-3-yl)oxypyridin-2-yl]-amino}-N,N-dimethyl-benzamide] was tested. Which IC50 (human ALK5 [1]) did it give?
Its IC50 is 0.00706 µM.

What about the IC50 (human ALK5 [2]) of the same molecule?
Its IC50 is 0.0124 µM.

How did the IC50 (human ALK5 [1]) turn out when `COc1cc(Nc2cc(Oc3ccc(C)nc3-c3cnn(C)c3)ccn2)cc(OC)c1OC` [Example 5, 4-[6-Methyl-2-(1-methylpyrazol-4-yl)pyridin-3-yl]oxy-N-(3,4,5-trimethoxy-phenyl)pyridin-2-amine] was run?
Its IC50 is 0.0153 µM.

And the IC50 (human ALK5 [2])?
The IC50 was 0.0169 µM.

For `COc1cc(Nc2cc(Oc3cccnc3C)ccn2)cc(OC)c1OC` [Example 9, 4-(2-Methylpyridin-3-yl)oxy-N-(3,4,5-trimethoxyphenyl)-pyridin-2-amine], which IC50 (human ALK5 [1]) is on record?
Its IC50 is 0.114 µM.

What about the IC50 (human ALK5 [2]) of the same molecule?
The IC50 was 0.187 µM.

`Cc1cc(Oc2ccnc(Nc3ccn(C)n3)c2)c(-c2ccccn2)nc1C` [Example 39, 4-(5,6-Dimethyl-2-pyridin-2-yl-pyridin-3-yl)oxy-N-(1-methylpyrazol-3-yl)-pyridin-2-amine] was tested. Which IC50 (human ALK5 [1]) did it give?
Its IC50 is 0.0935 µM.

Which IC50 (human ALK5 [1]) does the source give for `COc1ccc(NC(C)=O)cc1Nc1cc(Oc2cc(C)c(C)nc2-c2ccccn2)ccn1` [Example 73, N-(3-{[4-(5,6-Dimethyl-2-pyridin-2-ylpyridin-3-yl)oxypyridin-2-yl]-amino}-4-methoxyphenyl)acetamide] here?
Its IC50 is 0.454 µM.

With `Cc1cc(Oc2ccnc(Nc3ccccc3Cl)c2)c(-c2ccccn2)nc1C` [Example 194B, N-(2-Chlorophenyl)-4-(5,6-dimethyl-2-pyridin-2-ylpyridin-3-yl)-oxypyridin-2-amine] as the molecule, how does the IC50 (human ALK5 [1]) read?
Its IC50 is 2.8 µM.

Which IC50 (human ALK5 [1]) does the source give for `Cc1cc(Oc2ccnc(Nc3ccc4cc[nH]c4c3)c2)c(-c2ccccn2)nc1C` [Example 40, N-[4-(5,6-Dimethyl-2-pyridin-2-yl-pyridin-3-yl)-oxypyridin-2-yl]-1H-indol-6-amine] here?
Its IC50 is 1.14 µM and 1.11 µM.

With `Cc1cc(Oc2ccnc(Nc3ccccn3)c2)c(-c2ccccn2)nc1C` [Example 14, 4-(5,6-Dimethyl-2-pyridin-2-yl-pyridin-3-yl)oxy-N-pyridin-2-yl-pyridin-2-amine] as the molecule, how does the IC50 (human ALK5 [1]) read?
Its IC50 is 0.0255 µM and 0.00856 µM.

With `COc1cc(Nc2cc(Oc3ccc(C)nc3-c3ccnc4ccccc34)ccn2)cc(OC)c1OC` [Example 170, 4-[6-Methyl-2-(quinolin-4-yl)pyridin-3-yloxy]-N-(3,4,5-trimethoxyphenyl)pyridin-2-amine] as the molecule, how does the IC50 (human ALK5 [1]) read?
Its IC50 is 0.615 µM.

With `Cc1ccc(Oc2ccnc(Nc3ccc(C(=O)O)cc3)c2)c(C)n1` [Example 205, Lithium 4-{[4-(2,6-dimethylpyridin-3-yl)oxypyridin-2-yl]-amino}benzoate] as the molecule, how does the IC50 (human ALK5 [1]) read?
The IC50 was 0.15 µM.

For `Cc1ccc(Oc2ccnc(Nc3ccc(CO)cc3)c2)c(-c2ccccc2)n1` [Example 152, (4-{[4-(6-Methyl-2-phenylpyridin-3-yl)oxypyridin-2-yl]amino}-phenyl)methanol], which IC50 (human ALK5 [2]) is on record?
Its IC50 is 0.00705 µM.

How did the IC50 (human ALK5 [2]) turn out when `COCC(C)NS(=O)(=O)c1ccc(Nc2cc(Oc3ccc(C)nc3C)ccn2)cc1` (centres unmarked) [Example 118, 4-{[4-(2,6-Dimethylpyridin-3-yl)oxypyridin-2-yl]amino}-N-(1-methoxypropan-2-yl)benzenesulfonamide] was run?
The IC50 was 0.155 µM.

Which IC50 (human ALK5 [2]) does the source give for `COCCNS(=O)(=O)c1ccc(Nc2cc(Oc3ccc(C)nc3C)ccn2)cc1` [Example 110, 4-{[4-(2,6-Dimethylpyridin-3-yl)oxypyridin-2-yl]amino}-N-(2-methoxyethyl)benzenesulfonamide] here?
Its IC50 is 0.203 µM.

How did the IC50 (human ALK5 [2]) turn out when `Cc1ccc(Oc2ccnc(Nc3cccc(O)c3)c2)c(C)n1` [Example 126, 3-{[4-(2,6-Dimethylpyridin-3-yl)oxypyridin-2-yl]amino}phenol] was run?
Its IC50 is 0.0377 µM.

Which IC50 (human ALK5 [2]) does the source give for `Cc1ccc(Oc2ccnc(Nc3ccc(S(=O)(=O)N(C)CCO)cc3)c2)c(C)n1` [Example 112, 4-{[4-(2,6-Dimethylpyridin-3-yl)oxypyridin-2-yl]amino}-N-(2-hydroxyethyl)-N-methylbenzenesulfonamide] here?
The IC50 was 0.505 µM.

For `Cc1ccc(Oc2ccnc(Nc3ccc(S(N)(=O)=O)cc3)c2)c(-c2ccccc2)n1` [Example 149, 4-{[4-(6-Methyl-2-phenylpyridin-3-yl)oxypyridin-2-yl]amino}-benzenesulfonamide], which IC50 (human ALK5 [2]) is on record?
Its IC50 is 0.014 µM.

For `CCN(CC)S(=O)(=O)c1ccc(Nc2cc(Oc3ccc(C)nc3C)ccn2)cc1` [Example 116, 4-{[4-(2,6-Dimethylpyridin-3-yl)oxypyridin-2-yl]amino}-N,N-diethylbenzenesulfonamide], which IC50 (human ALK5 [2]) is on record?
The IC50 was 1.42 µM.

With `Cc1ccc(Oc2ccnc(Nc3ccc(C(=O)NCCN4CCC(F)(F)CC4)cc3)c2)c(C)n1` [Example 219, N-[2-(4,4-Difluoropiperidin-1-yl)ethyl]-4-{[4-(2,6-dimethyl-pyridin-3-yl)oxypyridin-2-yl]amino}benzamide] as the molecule, how does the IC50 (human ALK5 [2]) read?
Its IC50 is 0.108 µM.

How did the IC50 (human ALK5 [2]) turn out when `Cc1cc(Oc2ccnc(Nc3ccc(C(=O)NCCCN)cc3)c2)c(-c2ccccn2)nc1C` [Example 199, N-(3-Aminopropyl)-4-{[4-(5,6-dimethyl-2-pyridin-2-ylpyridin-3-yl)oxypyridin-2-yl]amino}benzamide] was run?
The IC50 was 0.00145 µM.

For `Cc1ccc(Oc2ccnc(Nc3cccc(C(=O)N4CCN(CC(N)=O)CC4)c3)c2)c(C)n1` [Example 69, 2-[4-(3-{[4-(2,6-Dimethylpyridin-3-yl)oxypyridin-2-yl]amino}-benzoyl)piperazin-1-yl]acetamide], which IC50 (human ALK5 [2]) is on record?
Its IC50 is 0.0827 µM.

With `Cc1ccc(Oc2ccnc(Nc3cccc(CN4CCN(C(=O)CCNC(=O)OC(C)(C)C)CC4)c3)c2)c(C)n1` [Example 208, tert-Butyl N-(3-{4-[(3-{[4-(2,6-dimethylpyridin-3-yl)oxypyridin-2-yl]amino}phenyl)methyl]piperazin-1-yl}-3-oxopropyl)carbamate] as the molecule, how does the IC50 (human ALK5 [2]) read?
The IC50 was 0.0204 µM.

With `Cc1ccc(Oc2ccnc(Nc3cccc(CN4CCN(C(=O)NC5CCCCC5)CC4)c3)c2)c(C)n1` [Example 178, N-Cyclohexyl-4-{3-[4-(2,6-dimethylpyridin-3-yloxy)pyridin-2-ylamino]benzyl}piperazine-1-carboxamide] as the molecule, how does the IC50 (human ALK5 [2]) read?
Its IC50 is 0.0237 µM.

Which IC50 (human ALK5 [2]) does the source give for `Cc1ccc(Oc2ccnc(Nc3ccc(S(=O)(=O)Nc4ccccn4)cc3)c2)c(C)n1` [Example 106, 4-[4-(2,6-Dimethylpyridin-3-yloxy)pyridin-2-ylamino]-N-(pyridin-2-yl)benzenesulfonamide] here?
The IC50 was 0.527 µM.
